Experiment: xn = mol fraction of the nth substance listed
Settings: Liquid, Vibrating tube method

CC(C)O [propan-2-ol] + O
Settings	mass density [kg/m3]
300.08 K, 7 kPa, x1 = 0.2483	895.51
300.08 K, 7.3 kPa, x1 = 0.7258	805.5
300.08 K, 88.2 kPa, x1 = 0.7258	805.57
300.08 K, 146.2 kPa, x1 = 0.2483	895.5
300.08 K, 303 kPa, x1 = 0.7258	805.78
300.08 K, 381.3 kPa, x1 = 0.2483	895.67
300.08 K, 565.1 kPa, x1 = 0.7258	806
300.08 K, 764.9 kPa, x1 = 0.2483	895.89
300.08 K, 1101.1 kPa, x1 = 0.2483	896.11
300.08 K, 1126.2 kPa, x1 = 0.7258	806.42
300.08 K, 1556.8 kPa, x1 = 0.2483	896.32
300.08 K, 1702.5 kPa, x1 = 0.7258	806.92
300.08 K, 1921.9 kPa, x1 = 0.2483	896.56
300.08 K, 2181.5 kPa, x1 = 0.2483	896.86
300.08 K, 2239.8 kPa, x1 = 0.7258	807.33
300.08 K, 2610.1 kPa, x1 = 0.2483	897.09
300.08 K, 2722.7 kPa, x1 = 0.7258	807.73
300.08 K, 3080.5 kPa, x1 = 0.2483	897.32
300.08 K, 3196 kPa, x1 = 0.7258	808.11
300.08 K, 3522.3 kPa, x1 = 0.2483	897.58
300.08 K, 3715.6 kPa, x1 = 0.7258	808.53
300.08 K, 4082.6 kPa, x1 = 0.2483	897.87
300.08 K, 4231.5 kPa, x1 = 0.7258	808.93
300.08 K, 4587.1 kPa, x1 = 0.7258	809.31
300.08 K, 4663.3 kPa, x1 = 0.2483	898.17
300.08 K, 5151.3 kPa, x1 = 0.2483	898.42
300.08 K, 5314.6 kPa, x1 = 0.7258	809.85
300.08 K, 5562.5 kPa, x1 = 0.2483	898.65
300.08 K, 5793.2 kPa, x1 = 0.7258	810.24
300.08 K, 5980.5 kPa, x1 = 0.2483	898.85
300.08 K, 6301.2 kPa, x1 = 0.7258	810.63
300.08 K, 6414.3 kPa, x1 = 0.2483	899.11
300.08 K, 6754.8 kPa, x1 = 0.2483	899.33
300.08 K, 6783.9 kPa, x1 = 0.7258	811.02
300.08 K, 7246.8 kPa, x1 = 0.2483	899.56
300.08 K, 7297.6 kPa, x1 = 0.7258	811.43
300.08 K, 7636.7 kPa, x1 = 0.2483	899.78
300.08 K, 7804.4 kPa, x1 = 0.7258	811.81
300.08 K, 8131.6 kPa, x1 = 0.2483	900.04
300.08 K, 8342.2 kPa, x1 = 0.7258	812.23
300.08 K, 8662.8 kPa, x1 = 0.2483	900.28
300.08 K, 8818 kPa, x1 = 0.7258	812.6
300.08 K, 9087.3 kPa, x1 = 0.2483	900.54
300.08 K, 9330.1 kPa, x1 = 0.7258	813
300.08 K, 9562.3 kPa, x1 = 0.2483	900.79
300.08 K, 9918.9 kPa, x1 = 0.7258	813.45
300.1 K, 7.2 kPa, x1 = 0.4939	837.98
300.1 K, 233.4 kPa, x1 = 0.4939	838.18
300.1 K, 503 kPa, x1 = 0.4939	838.33
300.1 K, 946.6 kPa, x1 = 0.4939	838.71
300.1 K, 1545.3 kPa, x1 = 0.4939	839.06
300.1 K, 1902.2 kPa, x1 = 0.4939	839.36
300.1 K, 2303.5 kPa, x1 = 0.4939	839.65
300.1 K, 2724.6 kPa, x1 = 0.4939	839.96
300.1 K, 3136.5 kPa, x1 = 0.4939	840.26
300.1 K, 3567.9 kPa, x1 = 0.4939	840.56
300.1 K, 3995.8 kPa, x1 = 0.4939	840.87
300.1 K, 4436.2 kPa, x1 = 0.4939	841.18
300.1 K, 4835.5 kPa, x1 = 0.4939	841.48
300.1 K, 5262 kPa, x1 = 0.4939	841.77
300.1 K, 5699.8 kPa, x1 = 0.4939	842.07
300.1 K, 6161 kPa, x1 = 0.4939	842.39
300.1 K, 6588.4 kPa, x1 = 0.4939	842.68
300.1 K, 7053 kPa, x1 = 0.4939	843
300.1 K, 7437.9 kPa, x1 = 0.4939	843.28
300.1 K, 7862 kPa, x1 = 0.4939	843.57
300.1 K, 8248.5 kPa, x1 = 0.4939	843.86
300.1 K, 8704.4 kPa, x1 = 0.4939	844.15
300.1 K, 9260.6 kPa, x1 = 0.4939	844.49
300.1 K, 9966.4 kPa, x1 = 0.4939	845.04
325.09 K, 28.6 kPa, x1 = 0.4939	814.94
325.09 K, 65.4 kPa, x1 = 0.4939	814.96
325.09 K, 303 kPa, x1 = 0.4939	815.2
325.09 K, 645.3 kPa, x1 = 0.4939	815.47
325.09 K, 1004.8 kPa, x1 = 0.4939	815.8
325.09 K, 1391.9 kPa, x1 = 0.4939	816.13
325.09 K, 1788.1 kPa, x1 = 0.4939	816.48
325.09 K, 2242 kPa, x1 = 0.4939	816.83
325.09 K, 2881.1 kPa, x1 = 0.4939	817.33
325.09 K, 3904.6 kPa, x1 = 0.4939	818.19
325.09 K, 4242.1 kPa, x1 = 0.4939	818.51
325.09 K, 4784.4 kPa, x1 = 0.4939	818.94
325.09 K, 5116.8 kPa, x1 = 0.4939	819.26
325.09 K, 5507.3 kPa, x1 = 0.4939	819.61
325.09 K, 5912.2 kPa, x1 = 0.4939	819.93
325.09 K, 6322.1 kPa, x1 = 0.4939	820.28
325.09 K, 6773 kPa, x1 = 0.4939	820.6
325.09 K, 7214.5 kPa, x1 = 0.4939	820.97
325.09 K, 7613.3 kPa, x1 = 0.4939	821.31
325.09 K, 8080.5 kPa, x1 = 0.4939	821.7
325.09 K, 8603.1 kPa, x1 = 0.4939	822.11
325.09 K, 9197.3 kPa, x1 = 0.4939	822.51
325.09 K, 9561.4 kPa, x1 = 0.4939	822.86
325.1 K, 27.3 kPa, x1 = 0.2483	874.07
325.1 K, 72.6 kPa, x1 = 0.2483	874.13
325.1 K, 410.3 kPa, x1 = 0.2483	874.37
325.1 K, 962.1 kPa, x1 = 0.2483	874.71
325.1 K, 1343 kPa, x1 = 0.2483	875.01
325.1 K, 1859.5 kPa, x1 = 0.2483	875.37
325.1 K, 2332.6 kPa, x1 = 0.2483	875.6
325.1 K, 2826.4 kPa, x1 = 0.2483	875.91
325.1 K, 3319.4 kPa, x1 = 0.2483	876.24
325.1 K, 3776.3 kPa, x1 = 0.2483	876.52
325.1 K, 4236.7 kPa, x1 = 0.2483	876.83

Source: the NIST ThermoML archive (doi:10.1021/je8001305)
